Among the data in paper PMC6175577, “BRCT domains of the DNA damage checkpoint proteins TOPBP1/Rad4 display distinct specificities for phosphopeptide ligands” (eLife, 2018) are Kd values, retold here.

In general, Kd refers to a measure of binding affinity in units of concentration.

The target of one assay is T1, TOPBP1-BRCT4,5 (Homo sapiens, UniProt Q92547).
T1 construct: made in house; host or cells: E. coli BL21(DE3)
Nature of the assay: Fluorescence polarisation titration, TOPBP1-BRCT4,5. To be noted: read-out: Kd. It is filed as binding. The procedure:
(§1) Fluorescein-labelled peptides (Peptide Protein Research Ltd, Fareham, UK) at a concentration of 200 nM, were incubated at room temperature with increasing concentrations of recombinant protein in 25 mM HEPES pH 7.5, 150 mM NaCl, 1 mM EDTA, 0.25 mM TCEP, 0.02% (v/v) Tween-20. Four parallel replicates of each titration were dispensed into a black 96-well polypropylene plate (VWR, Lutterworth, UK) for measurement. Fluorescence polarisation was measured in a CLARIOstar multimode microplate reader (BMG Labtech, Aylesbury, UK). Binding curves represent the mean of 4 independent experiments, with error bars indicating one standard deviation. All data were fitted by non-linear regression, to a one site-specific binding model in Prism seven for Mac OS X (v 7.0d, GraphPad Software) in order to calculate the reported dissociation constants (Kd). Low-affinity non-specific responses for which a binding curve could not be determined are marked as ND.

In the next assay the target is T2, TOPBP1-BRCT7,8 (Homo sapiens, UniProt Q92547).
T2 construct: made in house; host or cells: E. coli BL21(DE3)
T2 sequence (Q92547 1264-1493 limits assumed): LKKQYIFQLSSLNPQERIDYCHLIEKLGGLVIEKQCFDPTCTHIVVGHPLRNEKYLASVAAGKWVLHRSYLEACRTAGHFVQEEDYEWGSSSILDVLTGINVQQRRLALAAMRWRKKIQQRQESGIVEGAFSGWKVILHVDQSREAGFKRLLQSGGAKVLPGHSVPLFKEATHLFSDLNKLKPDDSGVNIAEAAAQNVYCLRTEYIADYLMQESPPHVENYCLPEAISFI
Description: Fluorescence polarisation titration, TOPBP1-BRCT7,8. It is filed as binding. The procedure: as §1

The next assay concerns the target T3, Rad4-BRCT1,2 WT (Schizosaccharomyces pombe, UniProt P32372).
T3 construct: made in house; host or cells: E. coli BL21(DE3)
T3 sequence (P32372 1-186 limits assumed): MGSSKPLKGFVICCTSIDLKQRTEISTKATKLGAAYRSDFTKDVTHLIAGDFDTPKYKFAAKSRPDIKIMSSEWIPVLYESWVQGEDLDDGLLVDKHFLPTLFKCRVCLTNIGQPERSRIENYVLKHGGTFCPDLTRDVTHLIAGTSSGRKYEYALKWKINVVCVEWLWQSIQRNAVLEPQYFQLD
Description: Fluorescence polarisation titration, Rad4-BRCT1,2 wild-type. The conditions noted are these: FP, fluorescein-peptide 200 nM, HEPES pH 7.5, room temperature, one-site fit, 4 replicates; ND = low-affinity non-specific response, no binding curve. The procedure:
as §1

The next assay addresses T4, Rad4-BRCT3,4 (Schizosaccharomyces pombe, UniProt P32372).
T4 construct: made in house; host or cells: E. coli BL21(DE3)
T4 sequence (P32372 291-494 limits assumed): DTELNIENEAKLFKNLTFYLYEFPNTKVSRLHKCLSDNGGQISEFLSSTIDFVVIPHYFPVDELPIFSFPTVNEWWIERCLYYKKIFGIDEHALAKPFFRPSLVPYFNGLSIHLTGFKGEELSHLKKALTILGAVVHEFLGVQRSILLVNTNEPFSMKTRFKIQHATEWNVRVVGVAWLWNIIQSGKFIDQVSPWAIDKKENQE
Description: Fluorescence polarisation titration, Rad4-BRCT3,4. To be noted: FP, fluorescein-peptide 200 nM, HEPES pH 7.5, room temperature; ND = low-affinity non-specific response, no binding curve. Here is the method:
as §1
Background: Fluorescence polarisation rises when a labelled molecule tumbles more slowly, as on binding a larger partner.

For the next assay, the target named is T5, SpNbs1 (Schizosaccharomyces pombe, UniProt O43070).
T5 construct: made in house; host or cells: E. coli BL21(DE3)
T5 sequence (O43070 1-613): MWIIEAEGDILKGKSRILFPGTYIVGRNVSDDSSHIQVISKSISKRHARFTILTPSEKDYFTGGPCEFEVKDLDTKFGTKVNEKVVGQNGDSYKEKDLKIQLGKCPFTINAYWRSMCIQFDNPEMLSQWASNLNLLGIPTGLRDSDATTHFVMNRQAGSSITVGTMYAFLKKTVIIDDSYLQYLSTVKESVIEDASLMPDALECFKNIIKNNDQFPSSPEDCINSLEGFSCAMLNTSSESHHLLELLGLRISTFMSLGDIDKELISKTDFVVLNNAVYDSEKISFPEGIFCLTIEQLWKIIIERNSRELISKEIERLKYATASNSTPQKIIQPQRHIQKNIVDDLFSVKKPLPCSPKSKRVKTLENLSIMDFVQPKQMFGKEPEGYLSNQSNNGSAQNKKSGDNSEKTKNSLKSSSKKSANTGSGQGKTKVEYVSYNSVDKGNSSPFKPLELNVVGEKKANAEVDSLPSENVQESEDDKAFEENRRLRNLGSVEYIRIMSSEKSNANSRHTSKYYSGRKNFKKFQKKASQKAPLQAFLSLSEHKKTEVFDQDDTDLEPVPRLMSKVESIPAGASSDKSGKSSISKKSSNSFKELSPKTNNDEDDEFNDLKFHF
Nature of the assay: Fluorescence polarisation titration, SpNbs1. It is filed as binding, S. pombe. The conditions noted are these: FP, fluorescein-peptide 200 nM, HEPES pH 7.5, room temperature, one-site fit, 4 replicates. The procedure: as §1

Structures are written as SMILES. Where a SMILES comes first, the peptide text is derived from it. [ ]: non-standard residue; d: D form. The star is where a group is joined. 5FAM = O=C1OC2(c3ccc(O)cc3Oc3cc(O)ccc32)c2ccc(C(=O)*)cc21; pT = C[C@@H](OP(=O)(O)O)[C@H](N)C(=O)O; pS = N[C@@H](COP(=O)(O)O)C(=O)O

T1 sequence (Q92547 549-746 limits assumed): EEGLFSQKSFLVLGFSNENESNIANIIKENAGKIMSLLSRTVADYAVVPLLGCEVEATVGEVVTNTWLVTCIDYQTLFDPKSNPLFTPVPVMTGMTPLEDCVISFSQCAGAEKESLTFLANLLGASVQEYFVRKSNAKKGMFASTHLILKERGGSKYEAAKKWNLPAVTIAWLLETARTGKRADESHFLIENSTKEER

Regarding `CC[C@H](C)[C@H](NC(=O)[C@H](CCC(=O)O)NC(=O)[C@H](CCC(=O)O)NC(=O)[C@@H]1CCCN1C(=O)[C@H](COP(=O)(O)O)NC(=O)[C@@H]1CCCN1C(=O)[C@@H]1CCCN1C(=O)[C@@H](NC(=O)[C@H](Cc1ccccc1)NC(=O)[C@H](CC(=O)O)NC(=O)[C@@H](NC(=O)[C@H](CC(=O)O)NC(=O)CNC(=O)[C@H](Cc1ccc(O)cc1)NC(=O)CNC(=O)c1ccc2c(c1)C(=O)OC21c2ccc(O)cc2Oc2cc(O)ccc21)[C@@H](C)O)C(C)C)C(=O)N[C@H](C(=O)N[C@@H](CO)C(=O)N[C@@H](C)C(=O)O)[C@@H](C)CC` [BLM pS304, reference compound] (5FAM-GYGDTDFVPP[pS]PEEIISA-OH), the Kd at TOPBP1-BRCT4,5 worked out at 3460 ± 540 nM.
On TOPBP1-BRCT7,8, `CC[C@H](C)[C@H](NC(=O)[C@H](CO)NC(=O)[C@H](CCC(=O)O)NC(=O)[C@H](CC(=O)O)NC(=O)[C@H](CCC(=O)O)NC(=O)CNC(=O)[C@H](Cc1ccc(O)cc1)NC(=O)CNC(=O)c1ccc2c(c1)C(=O)OC21c2ccc(O)cc2Oc2cc(O)ccc21)C(=O)N[C@@H](Cc1ccc(O)cc1)C(=O)N[C@@H](Cc1ccccc1)C(=O)N[C@H](C(=O)N1CCC[C@H]1C(=O)N[C@@H](CCC(=O)O)C(=O)N[C@@H](CC(C)C)C(=O)N[C@@H](Cc1ccc(O)cc1)C(=O)N[C@@H](CC(=O)O)C(=O)N1CCC[C@H]1C(=O)N[C@@H](CCC(=O)O)C(=O)O)[C@@H](C)OP(=O)(O)O` [FANCJ pT1133, reference compound] (5FAM-GYGEDESIYF[pT]PELYDPE-OH) came in with a Kd of 140 ± 10 nM.
On to `CC(C)[C@H](NC(=O)CNC(=O)[C@H](Cc1ccc(O)cc1)NC(=O)CNC(=O)c1ccc2c(c1)C(=O)OC21c2ccc(O)cc2Oc2cc(O)ccc21)C(=O)N[C@@H](CCC(=O)O)C(=O)NCC(=O)N[C@@H](CC(=O)O)C(=O)N[C@@H](Cc1c[nH]cn1)C(=O)N[C@@H](CO)C(=O)N[C@@H](COP(=O)(O)O)C(=O)N[C@@H](CC(=O)O)C(=O)N[C@H](C(=O)N[C@@H](CCC(=O)O)C(=O)N[C@@H](CCC(=O)O)C(=O)N[C@@H](CCC(=O)O)C(=O)N[C@H](C(=O)N[C@H](C(=O)N[C@@H](CO)C(=O)O)C(C)C)C(C)C)[C@@H](C)OP(=O)(O)O` [Mdb1 pS216, pT218] (5FAM-GYGVEGDHS[pS]D[pT]EEEVVS-OH), for which the values for the Kd result on Rad4-BRCT1,2 WT, at Rad4-BRCT3,4 and on SpNbs1 were “no binding was observed”, “no binding was observed” and “sub-micromolar affinity”, respectively.
